# Reference: patent publication US7417045B2, “Heterocyclic substituted pyridine or phenyl compounds with CXCR3 antagonist activity” (Schering Corporation, priority 2005, dated 2008)
# Biological target: T1, human CXCR3 (N-delta 4) (Homo sapiens, UniProt P49682)
# T1 construct: CD8 leader (N); Flag tag; expressed in transfected cells; membranes
# T1 sequence (P49682 5-368 limits assumed): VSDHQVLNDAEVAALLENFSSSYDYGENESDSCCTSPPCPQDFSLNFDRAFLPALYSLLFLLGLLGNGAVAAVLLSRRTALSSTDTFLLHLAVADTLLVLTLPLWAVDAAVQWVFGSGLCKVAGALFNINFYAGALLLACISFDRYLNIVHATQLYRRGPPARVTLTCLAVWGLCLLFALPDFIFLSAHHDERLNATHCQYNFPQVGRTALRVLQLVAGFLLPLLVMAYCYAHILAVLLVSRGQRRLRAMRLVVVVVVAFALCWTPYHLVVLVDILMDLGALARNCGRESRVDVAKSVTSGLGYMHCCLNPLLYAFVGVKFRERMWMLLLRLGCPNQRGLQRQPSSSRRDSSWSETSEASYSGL
# Experiment: Human CXCR3 (N-delta 4) Scintillation Proximity Assay (SPA), [125I] IP-10 binding
# Conditions: IC50 rating; [125I] IP-10 displacement, Ba/F3-hCXCR3 (N-delta 4) membranes
# Description: The inventive compounds can readily be evaluated to determine activity at The CXCR3 receptors by known methods, such as, for example, Development of Human CXCR3 (N-delta 4) Binding Assay.
# Cloning and Expression of Human CXCR3 (N-Delta 4):
# The DNA encoding human CXCR3 was cloned by PCR using human genomic DNA (Promega, Madison, Wis.) as a template. The PCR primers were designed based on the published sequence of human orphan receptor GPR9 (1) with incorporated restriction sites, a Kozak consensus sequence, CD8 leader and Flag tag. The PCR product was subcloned into the mammalian expression vector pME18Sneo, a derivative of the SR-alpha expression vector (designated as pME18Sneo-hCXCR3 (N-delta 4).
# IL-3-dependent mouse pro-B cells Ba/F3 were transfected by electroporation in 0.4 ml Dulbecco's PBS containing 4×10^6 cells with 20 μg of pME18Sneo-hCXCR3 (N-delta 4) plasmid DNA. Cells were pulsed at 400 Volts, 100 OHMs, 960 μFd. The transfected cells were under selection with 1 mg/ml G418 (Life Technologies, Gaithersburg, Md.). G418-resistant Ba/F3 clones were screened for CXCR3 expression by specific binding of [^125I] IP-10 (NEN Life Science Products, Boston, Mass.).
# Preparation of Ba/F3-hCXCR3 (N-Delta 4) Membranes
# Ba/F3 cells expressing human CXCR3 (N-delta 4) were pelleted and resuspended in the lysis buffer containing 10 mM HEPES, pH 7.5 and Complete® protease inhibitors (1 tablet per 100 ml) (Boehringer Mannheim, Indianapolis, Ind.) at a cell density of 20×10^6 cells per ml. After 5 minutes incubation on ice, cells were transferred to 4639 cell disruption bomb (Parr Instrument, Moline, Ill.) and applied with 1,500 psi of nitrogen for 30 minutes on ice. Large cellular debris was removed by centrifugation at 1,000× g. Cell membrane in the supernatant was sedimented at 100,000× g. The membrane was resuspended in the lysis buffer supplemented with 10% sucrose and stored at −80° C. Total protein concentration of the membrane was determined by BCA method from Pierce (Rockford, Ill.).
# Human CXCR3 (N-Delta 4) Scintillation Proximity Assay (SPA)
# For each assay point, 2 μg of membrane was preincubated for 1 hr with 300 μg wheat germ agglutinin (WGA) coated SPA beads (Amersham, Arlington Heights, Ill.) in the binding buffer (50 mM HEPES, 1 mM CaCl2, 5 mM MgCl2, 125 mM NaCl, 0.002% NaN3, 1.0% BSA) at room temperature. The beads were spun down, washed once, resuspended in the binding buffer and transferred to a 96-well Isoplate (Wallac, Gaithersburg, Md.). 25 pM of [^125I] IP-10 with tested compounds in a series of titration were added to start the reaction. After 3 hr reaction at room temperature, the amount of [^125I] IP-10 bound to the SPA beads was determined with a Wallac 1450 Microbeta counter.
row,Structure (SMILES),IC50 [nM]
1,CC[C@H]1CN(c2ncc(-c3ncc[nH]3)cc2Cl)CCN1C1CCN([C@@H](C(=O)NCC2CC2)c2ccc(Cl)cc2)CC1 [Compound 107],25 to 100
2,CC[C@H]1CN(c2ncc(-c3ncc[nH]3)cc2Cl)CCN1C1CCN(Cc2ccc(Cl)cc2C(N)=O)CC1 [Compound 9],< 25
3,CC[C@H]1CN(c2ncc(-c3ncc[nH]3)cc2Cl)CCN1C1CCN(C(=O)c2ccc(C#N)nc2)CC1 [Compound 68],< 25
4,CC[C@H]1CN(c2ncc(-c3ncc[nH]3)cc2Cl)CCN1C1CCN(Cc2ccc(Cl)cc2C(=O)OC)CC1 [Compound 50],< 25
5,CC[C@H]1CN(c2ncc(-c3ncc[nH]3)cc2Cl)CCN1[C@@H]1CCN(Cc2ccc(Cl)cc2C(=O)NC)C[C@H]1O [Compound 170],> 100
6,CC[C@H]1CN(c2ncc(-c3ncc[nH]3)cc2Cl)CCN1C1CCN([C@@H](C(N)=O)c2ccc(Cl)cc2)CC1 [Compound 91],< 25
7,CC[C@H]1CN(c2ncc(-c3ncc[nH]3)cc2Cl)CCN1C1CCN(Cc2ccc(Cl)cc2-c2n[nH]c(=O)o2)CC1 [Compound 57],< 25
8,CC[C@H]1CN(c2ncc(-c3ncc[nH]3)cc2Cl)CCN1C1CCN(C(=O)c2ccc(-n3cccc3)nc2)CC1 [Compound 81],< 25
9,CC[C@H]1CN(c2ncc(C3=NC(C)(C)CN3)cc2Cl)CCN1C1CCN(C(=O)c2ccc(Cl)cc2)CC1 [Compound 105],25 to 100
10,CC[C@H]1CN(c2ncc(-c3nc(C(O)C(F)(F)F)cn3C(O)C(F)(F)F)cc2Cl)CCN1C1CCN(C(=O)c2ccc(Cl)cc2)CC1 (some centres unmarked) [Compound 163],> 100
11,CC[C@H]1CN(c2ncc(C3=NCCN3)cc2Cl)CCN1C1CCN(Cc2ccc(Cl)cc2F)CC1 [Compound 26],< 25
12,CC[C@H]1CN(c2ncc(-c3ncc[nH]3)cc2Cl)CCN1C1CCN(Cc2ccc(-n3cccn3)cc2)CC1 [Compound 19],< 25
13,CC[C@H]1CN(c2ncc(-c3ncc[nH]3)cc2Cl)CCN1C1CCN(Cc2ccc3[nH]ccc3c2)CC1 [Compound 138],> 100
14,CC[C@H]1CN(c2ncc(-c3ncc[nH]3)cc2Cl)CCN1C1CCN(C(=O)c2ccc(Cl)cc2O)CC1 [Compound 78],< 25
15,CC[C@H]1CN(c2ncc(-c3ncc[nH]3)cc2Cl)CCN1C1CCN(Cc2ccc(C#CC(C)(C)NS(=O)(=O)NC(=O)OC(C)(C)C)cc2)CC1 [Compound 143],> 100
16,CCOC(=O)C1CC1c1ccc(CN2CCC(N3CCN(c4ncc(C5=NCCN5)cc4Cl)C[C@@H]3CC)CC2)cc1 (some centres unmarked) [Compound 75],< 25
17,CC[C@H]1CN(c2ncc(C3=NCCN3)cc2Cl)CCN1C1CCN([C@H](CO)c2ccc(Cl)cc2)CC1 [Compound 64],< 25
18,CC[C@H]1CN(c2ncc(C3=NCCN3)cc2Cl)CCN1C1CCN(Cc2ccc(C3CC3CO)cc2)CC1 (some centres unmarked) [Compound 153],> 100
19,CC[C@H]1CN(c2ncc(-c3ncc[nH]3)cc2Cl)CCN1C1CCN([C@@H](C(=O)NC)c2ccc(Cl)cc2)CC1 [Compound 66],< 25
20,CC[C@H]1CN(c2ncc(-c3ncc[nH]3)cc2Cl)CCN1C1CCN(C(=O)c2ccc(-c3ccccc3)cc2)CC1 [Compound 132],> 100
21,CC[C@H]1CN(c2ncc(-c3ncc[nH]3)cc2Cl)CCN1C1CCN([C@@H](CO)c2ccc(Cl)cc2)CC1 [Compound 10],< 25
22,CC[C@H]1CN(c2ncc(-c3nnc(CO)o3)cc2Cl)CCN1C1CCN(C(C(=O)OC)c2ccc(Cl)cc2)CC1 (some centres unmarked) [Compound 124],25 to 100
23,CCOC1(C)NN=C(c2cnc(N3CCN(C4CCN(C(=O)c5ccc(Br)cc5)CC4)[C@@H](CC)C3)c(Cl)c2)O1 (some centres unmarked) [Compound 158],> 100
24,CC[C@H]1CN(c2ncc(C3NC(=O)NC3=O)cc2Cl)CCN1C1CCN(Cc2ccc(Cl)cc2)CC1 (some centres unmarked) [Compound 119],25 to 100
25,CC[C@H]1CN(c2ncc(-c3nc4cc(F)ccc4[nH]3)cc2Cl)CCN1C1CCN(Cc2ccc(Cl)cc2F)CC1 [Compound 96],< 25

row,Structure (SMILES),IC50 [nM]
1,CC[C@H]1CN(c2ncc(-c3ncc[nH]3)cc2Cl)CCN1C1CCN(C(=O)c2ccc(Cl)cc2N)CC1 [Compound 32],< 25
2,CC[C@H]1CN(c2ncc(-c3ncc[nH]3)cc2Cl)CCN1C1CCN([C@H](C(=O)NC)c2ccc(Cl)cc2)CC1 [Compound 166],> 100
3,CC[C@H]1CN(c2ncc(-c3nnco3)cc2Cl)CCN1C1CCN(Cc2ccc(Cl)cc2F)CC1 [Compound 27],< 25
4,CC[C@H]1CN(c2ncc(C3=NCCCN3)cc2Cl)CCN1C1CCN(C(=O)c2ccc(Cl)cc2)CC1 [Compound 118],25 to 100
5,C[C@@H]1CN(C2CCN(Cc3ccc(Cl)cc3F)CC2)[C@@H](C)CN1c1ncc(-c2ncc[nH]2)cc1Cl [Compound 79],< 25
6,CC[C@H]1CN(c2ncc(-c3ncc[nH]3)cc2Cl)CCN1C1CCN(C(=O)c2ccc(Cl)cc2C#N)CC1 [Compound 62],< 25
7,CC[C@H]1CN(c2ncc(C3=NCCN3)cc2Cl)CCN1C1CCN(C(=O)c2ccc(C#CC(C)(C)NC(=O)OC(C)(C)C)cc2)CC1 [Compound 123],25 to 100
8,CC[C@H]1CN(c2ncc(-c3ncc[nH]3)cc2Cl)CCN1C1CCN(C(=O)c2ccc(C#CCOC)cc2)CC1 [Compound 92],< 25
9,CC[C@H]1CN(c2ncc(C3=NCCN3)cc2Cl)CCN1C1CCN([C@@H](CO)c2ccc(Cl)cc2)CC1 [Compound 7],< 25
10,CC[C@H]1CN(c2ncc(-c3ncc[nH]3)cc2Cl)CCN1C1CCN(Cc2ccc(Cl)cc2C(=O)O)CC1 [Compound 43],< 25
11,CC[C@H]1CN(c2ncc(-c3ncc[nH]3)cc2Cl)CCN1C1CCN([C@H](C(N)=O)c2ccc(Cl)cc2)CC1 [Compound 89],< 25
12,CC[C@H]1CN(c2ncc(-c3nnn[nH]3)cc2Cl)CCN1C1CCN(Cc2ccc(Cl)cc2F)CC1 [Compound 169],> 100
13,CC[C@H]1CN(c2ncc(-c3ncc[nH]3)cc2Cl)CCN1C1CCN(C(=O)c2ccc(C#CC(C)(C)NC(=O)OC(C)(C)C)cc2)CC1 [Compound 142],> 100
14,CC[C@H]1CN(c2ncc(-c3ncc[nH]3)cc2Cl)CCN1C1CCN(Cc2ccc(C#CCOC)cc2)CC1 [Compound 14],< 25
15,CC[C@H]1CN(c2ncc(C3=NCCN3C(=O)c3ccc(Cl)cc3)cc2Cl)CCN1C1CCN(C(=O)c2ccc(Cl)cc2)CC1 [Compound 146],> 100
16,CC[C@H]1CN(c2ncc(-c3ncc[nH]3)cc2Cl)CCN1C1CCN(Cc2ccc(C(N)=O)cc2)CC1 [Compound 148],> 100
17,CC[C@H]1CN(c2ncc(-c3ncc[nH]3)cc2Cl)CCN1C1CCN(C(=O)c2ccc(C(=O)OC)cc2)CC1 [Compound 71],< 25
18,CC[C@H]1CN(c2ncc(-c3ncc[nH]3)cc2Cl)CCN1C1CCN(C(=O)c2ccc(-n3ccc(C(F)(F)F)n3)cc2)CC1 [Compound 157],> 100
19,CC[C@H]1CN(c2ncc(-c3ncco3)cc2Cl)CCN1C1CCN(Cc2ccc(Cl)cc2F)CC1 [Compound 140],> 100
20,CC[C@H]1CN(c2ncc(-c3ncc[nH]3)cc2Cl)CCN1C1CCN([C@H](C(=O)OC)c2ccc(Br)cc2)CC1 [Compound 127],25 to 100
21,CC[C@H]1CN(c2ncc(-c3ncc[nH]3)cc2Cl)CCN1C1CCN(Cc2ccc(Cl)cc2)CC1 [Compound 1],< 25
22,CC[C@H]1CN(c2ncc(C3=NCCN3)cc2Cl)CCN1C1CCN(Cc2ccc(C#N)cc2)CC1 [Compound 29],< 25
23,CC[C@H]1CN(c2ncc(-c3ncc[nH]3)cc2Cl)CCN1[C@H]1CCN(Cc2ccc(Cl)cc2C(=O)NC)C[C@@H]1O [Compound 172],> 100
24,CC[C@H]1CN(c2ncc(-c3ncc[nH]3)cc2Cl)CCN1C1CCN(Cc2ccc(C(=O)O)cc2)CC1 [Compound 162],> 100

# Same assay, conditions: [125I] IP-10 displacement, Ba/F3-hCXCR3 (N-delta 4) membranes
row,Structure (SMILES),IC50 [nM]
1,CC[C@H]1CN(c2ncc(-c3ncc[nH]3)cc2Cl)CCN1C1CCN(Cc2ccc(Cl)cc2)CC1 [Compound 1],0.2
